# Reference: US10550399B2, “Plant transformation method using plant growth inhibiting hormone” (KANEKA CORPORATION, priority 2012, dated 2020)
# Key:
# [1] = system: soybeans, variety "Toyomusume"; assay: In planta transformation of soybeans using the Agrobacterium tumefaciens M21 mutant with abscisic acid; type: in vivo, soybean (Glycine max); conditions: abscisic acid 100 μM
# Experimental: Plant transformation was carried out in the same manner as in Example 8, except that the Agrobacterium tumefaciens M21 mutant was used, and then gene introduction in the T0 generation was verified.
# The Agrobacterium tumefaciens M21 mutant (hereafter referred to as “the M21 mutant”) was obtained via mutation of the Agrobacterium tumefaciens A208 strain (C58 chromosome, nopaline T37 pTi) with the use of transposon 5 (Tn5) (Majumder, P. et al., J. Biosci. Bioeng., 90: 328-331, 2000; WO 2005/024034). In the M21 mutant, Tn5 is inserted into the tryptophan monooxygenase gene involved in biosynthesis of indoleacetic acid (IAA) in the T-DNA region of the Ti plasmid. This would cause hormone imbalance in plants transformed via infection with the M21 mutant, which would lead to phenotypic changes. Thus, the presence or absence of the transformation was easily determined via visual inspection.
# Transformation efficiency (T0 generation) achieved by the method of the present invention was 75%.
# [2] = system: wheat seeds; assay: In planta Agrobacterium (LBA4404, pIG121-1) transformation of wheat seeds under application of a plant growth-inhibiting hormone; type: in vivo, wheat (Triticum aestivum L.); conditions: for Transformation efficiency (T0 generation×T1 generation): hormone 100 μM in bacterial solution, variety Yumechikara, shoot length about 2 mm, soaked about 20 min, co-culture 22° C. 2 days
# Experimental: Transformation efficiency for the transformed plant thus obtained can be determined. Transformation efficiency (T0 generation×T1 generation) is determined by multiplying transformation efficiency for the T0 generation (the number of transformed plants of T0 generation/the number of plants subjected to transformation) and transformation efficiency for the T1 generation (the number of transformed plants of T1 generation/(the number of plants of T1 generation subjected to the verification for incorporation of foreign genes into genomes).
# The Agrobacterium into which pIG121-1 had been introduced prepared above were cultured in LB medium containing kanamycin and streptomycin (50 mg/1 each) at 28° C. for 18 hours to prepare an Agrobacterium solution. Through this culture, the transformed Agrobacterium carrying pIG121-1 were selected on the basis of functions of the kanamycin resistance gene and the streptomycin resistance gene existing outside the T-DNA region of pIG121-1.
# Abscisic acid (final concentration: 100 μM) was added to the bacterial solution prepared in the manner described above, and the resulting bacterial solution was used below as an Agrobacterium solution for inoculation.
# Pretreatment of seeds was carried out by soaking wheat seeds (variety: Yumechikara (Wheat Nourin 172)) in 70% ethanol for 5 minutes, followed by shaking in a 20% antiformin solution for 10 minutes. The seeds were washed with water to remove the antiformin solution, wrapped in moistened Kim towel, and then cultured at 25° C. for 36 to 40 hours for germination.
# Subsequently, a portion around the shoot of the seed (shoot length: about 2 mm) was pierced with a needle (diameter: 0.71 mm) to a depth of about 1 mm to provide a pore. The seeds with thus wounded meristems were soaked in the Agrobacterium solution prepared above for about 20 minutes to inoculate the seeds with the Agrobacterium. Thereafter, the seeds were removed from the Agrobacterium solution, mounted on moistened Kim towel, and then cultured in a covered petri dish at 22° C. for 2 days (co-culture). Thus, the seeds were infected with Agrobacterium. Next, in order to disinfect Agrobacterium, the co-cultured seeds were soaked in an aqueous solution of cefotaxime (1,000 ppm) and then shaken at room temperature for 2 hours. Subsequently, the seeds were removed from the aqueous solution of cefotaxime, mounted on moistened Kim towel, and then grown in a covered petri dish at 25° C. for 2 days. The seeds were transferred to a pot containing culture soil and then grown at 25° C. under the long-day conditions (a light period of 16 hours and a dark period of 8 hours).
# When the seeds grew to the 5- to 6-leaf stage, genome PCR was carried out to select transformants.
# Considering that Yumechikara is an autumn wheat variety, the obtained transformants were subjected to vernalization at 4° C. for 1.5 months to facilitate flower bud formation. Subsequently, the transformants (T0 generation) were self-crossed to obtain T1 seeds, and gene introduction and gene expression in the T1 generation were verified.
# Gene introduction at the T1 generation was verified via genome PCR under the same conditions as with the case of the T0 generation. […] A band of interest was detected in 3 of the 14 individuals subjected to the genome PCR.
# Jasmonic acid (final concentration: 100 μM) was added to the bacterial solution prepared in the manner described above, and the resulting bacterial solution was used below as an Agrobacterium solution for inoculation.
# Subsequently, a portion around the shoot of the seed (shoot length: about 2 mm) was pierced with a needle (diameter: 0.71 mm) to a depth of about 1 mm to provide a pore. The seeds with thus wound meristems were soaked in the Agrobacterium solution prepared above for about 20 minutes to inoculate the seeds with the Agrobacterium. […]
# [3] = system: soybeans, variety "Toyomusume"; assay: In planta Agrobacterium (LBA4404, pIG121-1) transformation of soybean axillary buds with abscisic acid; type: in vivo, soybean (Glycine max); conditions: abscisic acid 100 μM, axillary buds of plants 14 days after germination
# Experimental: Plant transformation was carried out in the same manner as in Example 1, except that a variety “Toyomusume” of soybeans was used and axillary buds of the plants 14 days after germination were inoculated with Agrobacterium, and then gene introduction and gene expression in the T0 generation were verified.
# [4] = system: wheat seeds; assay: In planta Agrobacterium (LBA4404, pIG121-1) transformation of wheat seeds under application of a plant growth-inhibiting hormone; type: in vivo, wheat (Triticum aestivum L.)
# [5] = system: maize seed; assay: In planta transformation of maize seeds using pIG121-1-carrying Agrobacterium with abscisic acid; type: in vivo, maize (Zea mays); conditions: abscisic acid 100 μM
# Experimental: Seeds of maize (Zea mays) were washed with sterile water 2 or 3 times to wash the red disinfectant away from the seed coat. The washed seeds were soaked in sterile water and incubated at 25° C. for 2 days. Water was exchanged with fresh water once during incubation. Thus, the seeds absorbed water and the embryonic portions became white. These seeds were used for the experiment described below. A bacterial solution containing pIG121-1-carrying Agrobacterium and abscisic acid (final concentration: 100 μM) was prepared as an Agrobacterium solution for inoculation in the same manner as in Example 1.
# With the use of a needle (φ 0.71 mm), the shoot (length: 1 mm) of the embryo (longer diameter: about 1 cm) of the maize seed was pierced 4 times on the apex, in which the meristem was considered to be present, to a depth of 0.5 mm to 1 mm to provide 4 pores in an area of about 2 mm square. Thereafter, the Agrobacterium solution for inoculation prepared above was applied dropwise to the pores using a pipette to inoculate the seeds with Agrobacterium.
# Subsequently, a filter paper was placed in a petri dish and moistened with water. The maize seeds inoculated with Agrobacterium were placed on the filter paper and the petri dish was covered. The petri dish was then placed in an incubator at 25° C., and incubation was carried out in the dark for 2 days. After co-culture was conducted for 2 days, the seeds were sowed in culture soil and grown.
# Gene introduction in the T0 generation was verified in the same manner as in Example 1. Plants (5-leaf stage) 20 days after transformation were used for genomic PCR. […] A 544-bp PCR product indicating GUS gene introduction was detected in 2 plants.
# [6] = 12 plants subjected to transformation
# [7] = abscisic acid 100 μM, Yumechikara, shoot about 2 mm, co-culture 22° C., genome PCR
# [8] = 13 plants subjected to transformation
compound,measurement,setting,value
CC1=CC(=O)CC(C)(C)[C@@]1(O)/C=C/C(C)=C\C(=O)O [abscisic acid],Number of transformed plants,[1]; [6],9
same,Number of untransformed plants,[1]; [6],3
same,"Untransformed plants, percent",[1]; [6],25%
same,Transformation efficiency (T0 generation),"[1]; axillary buds, tumorigenesis by visual inspection, 12 plants",75%
same,Transformation efficiency (T0),[2]; [7],14.3%
same,Transformation efficiency (T1),[2]; [7],21.4%
same,"Individuals with band of interest, T1 generation","[2]; abscisic acid 100 μM, of the 14 individuals subjected to genome PCR",3
same,"Individuals with GUS gene band (544 bp), T0 generation","[2]; abscisic acid 100 μM, of the 14 transformed individuals, genome PCR",2
same,Transformation efficiency (T0 generation×T1 generation),[2],3.1%
same,Transformation efficiency (T0 generation),[3],30%
same,Transformation efficiency (T0 generation×T1 generation),"[4]; abscisic acid 100 μM and Tween 20 0.1%, Yumechikara, shoot 1 mm or less, vacuum treatment 20 min, co-culture 28° C.",5.1%
same,Transformation efficiency (T0 generation×T1 generation),"[4]; abscisic acid 100 μM, Tween 20 0.1%, acetosyringone 100 μM, Yumechikara, shoot 1 mm or less, vacuum treatment, co-culture 28° C.",7.2%
same,Transformation efficiency (T0 generation×T1 generation),"[4]; as Example 4 (abscisic acid 100 μM, Tween 20, acetosyringone, vacuum, 28° C.) but wheat variety Haruyokoi",10.2%
same,Transformation efficiency (T0 generation×T1 generation),"[4]; as Example 4 but 10 μM abscisic acid, Yumechikara",6.3%
same,Transformation efficiency (T0 generation×T1 generation),"[4]; as Example 4 but 300 μM abscisic acid, Yumechikara",7.0%
same,Number of untransformed plants,[5]; [8],11
same,"Untransformed plants, percent",[5]; [8],84.6%
same,Number of transformed plants,"[5]; 13 plants subjected to transformation, 544-bp GUS PCR product",2
same,Transformation efficiency (T0 generation),"[5]; shoot 1 mm pierced 4 times, co-culture 25° C. 2 days, genomic PCR 20 days after transformation, 13 plants",15.4%
CC/C=C\C[C@H]1C(=O)CC[C@@H]1CC(=O)O [jasmonic acid],Transformation efficiency (T0 generation×T1 generation),[2],2.4%
